The numbers were not newly measured in PMC11237654, “Optimization of quenched fluorescent peptide substrates of SARS-CoV-2 3CL^pro main protease (Mpro) from proteomic identification of P6—P6' active site specificity” (Journal of Virology, 2024), which cites them from elsewhere.

Square brackets hold non-standard residues; d marks the D form. * marks the point of attachment. ACC = NC(=O)Cc1cc(=O)oc2cc(N*)ccc12; Tle = CC(C)(C)[C@H](N)C(=O)O; Abu = CC[C@H](N)C(=O)O

The series has as its target SARS-CoV-2 3CL^pro (Severe acute respiratory syndrome coronavirus 2, UniProt P0DTD1, Q3569A). The note with it: cited from earlier work.

For the substance Ac-[Abu][Tle]LQ-{ACC}, the kcat/KM was 859 M⁻¹ s⁻¹.
